Assay results taken from paper PMC7397174, “4-Arylthieno[2,3-b]pyridine-2-carboxamides Are a New Class of Antiplasmodial Agents” (Molecules, 2020).
Like-named read-outs stand apart in the source and are kept apart here.

Tests used:
[1] = system: erythrocytic forms of P. falciparum (strain 3D7); assay: Viability screening of antiplasmodial activity (SYBR-gold DNA quantification, 96 h); format: cell-based, Plasmodium falciparum; details: for activity at 0.3 µM / activity at 3 µM: 96 h; for activity at 0.3 µM: read-out: Parasitemia (3D7) at 0.3 µM [%]; for activity at 3 µM: read-out: Parasitemia (3D7) at 3 µM [%]; for SI (Selectivity index for 3D7 erythrocytic forms versus HEK293 cells): 3D7 versus HEK293 cells
rPfGSK-3 = rPfGSK-3 (Plasmodium falciparum, UniProt O77344); assay: KinaseGlo Plus assay for inhibition of PfGSK-3; format: biochemical
Chain of rPfGSK-3 (O77344 entry or part of it): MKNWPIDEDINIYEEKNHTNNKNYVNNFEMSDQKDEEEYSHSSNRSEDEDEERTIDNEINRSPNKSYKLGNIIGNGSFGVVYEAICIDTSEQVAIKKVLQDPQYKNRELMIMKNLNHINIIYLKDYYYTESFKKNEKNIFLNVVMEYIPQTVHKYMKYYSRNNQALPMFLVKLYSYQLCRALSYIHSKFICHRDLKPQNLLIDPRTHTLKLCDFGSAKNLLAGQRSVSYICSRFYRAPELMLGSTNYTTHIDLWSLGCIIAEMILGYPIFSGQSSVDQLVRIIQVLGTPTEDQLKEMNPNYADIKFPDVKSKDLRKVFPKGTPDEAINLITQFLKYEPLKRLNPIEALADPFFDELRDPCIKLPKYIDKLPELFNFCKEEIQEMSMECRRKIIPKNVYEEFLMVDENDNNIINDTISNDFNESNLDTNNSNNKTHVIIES

rHsGSK-3 = assay: KinaseGlo Plus assay for inhibition of HsGSK-3; format: biochemical, human; details: for rHsGSK-3 Activity at 10 µM [%]: remaining activity, calculated on DMSO controls, Table 4
Procedure: A commercial luminescence-based kinase assay was used to investigate the enzymatic activity of kinases and to test potential kinase inhibitors. The KinaseGlo Plus assay (KinaseGlo Plus, Promega, Madison, WI, USA) provides a linear luminescence signal at ATP concentrations up to 100 μM and offers high signal stability. First, the kinase to be investigated and a corresponding substrate in the presence of ATP are used to perform the kinase reaction. During the substrate phosphorylation, ATP is consumed depending on the kinase activity. Subsequently, luminescence is generated by means of luciferase which is contained in the KinaseGlo Reagent. The intensity of the luminescence signal depends on the amount of ATP remaining in the reaction mixture. The luminescence […] to the enzymatic activity of the kinase. The following approach was used for the kinase reaction: rPfGSK-3 (see 3.4) or rHsGSK-3 (Promega, Madison, WI, USA) (20 ng), GS-1 substrate (Promega, Madison, WI, USA) (12 µg) and ATP (6 µg) (Ultra Pure, Promega, Madison, WI, USA) in 1× kinase reaction buffer (40 mM Tris-HCl pH 7.5, 20 mM MgCl2, 0.1 mg/mL BSA; final reaction volume 5 µL). The kinase reaction was performed for 30 min at 30 °C. The reaction mixture was then mixed with KinaseGlo Reagent (5 µL) and incubated for 10 min at room temperature. The mixture was transferred to a white 384-well plate (NUNC, ThermoFisher, Waltham, MA, USA) and the luminescence signal was measured in an EnVision Multilable Plate Reader (PerkinElmer, Waltham, MA, USA; integration time 0.5 sec/well). For the investigation, potential kinase inhibitors could be added directly to the kinase reaction. All kinase inhibitors were dissolved in DMSO. By appropriate pre-dilution of the inhibitors in kinase reaction buffer the final DMSO concentration in the kinase reaction was at most 1%. As negative control 1% DMSO without substance was measured. Since the luminescence signal is […] proportional to the ATP concentration, a control reaction (reaction without kinase) was measured simultaneously. The difference between kinase reaction and control reaction corresponds to the kinase activity. Using GraphPad Prism (version 6) the measured values were plotted and normalized to the DMSO control.

in vitro = format: cell-based, human; details: human, HEK293T Viability at 30 µM [%]
Procedure: (§1) Cytotoxic effects of test compounds on eukaryotic cells were investigated using a HEK293T cell viability assay. First, the cell density of a HEK293T culture was determined. […] The supernatant was then aspirated and fresh culture medium was added to 200 μL into which the test compounds were previously added. All substances were previously dissolved in DMSO. […] The viability of the cells was then examined by adding PrestoBlue® Cell Viability Agent (Invitrogen, Carlsbad, CA, USA). The supernatant was removed, 10% PrestoBlue® was added in preheated PBS and the culture was incubated for 30 min at 37 °C. In cells with an active metabolism, the PrestoBlue dye is reduced, causing it to fluorescence. The fluorescence (λex = 560 nm, λem = 590 nm) was measured in an EnVision Multilable Plate Reader (Perkin Elmer, Waltham, MA, USA; integration time 0.1 sec/well).

HEK293T cells = assay: in vitro; format: cell-based, human; details: 30 µM
Procedure: as §1

[2] = Plasmodium falciparum, 3D7, strain 3D7, erythrocytic forms
[3] = Plasmodium falciparum, 0.3 µM, strain 3D7, calculated on DMSO controls
[4] = Plasmodium falciparum, 3 µM, strain 3D7, calculated on DMSO controls
[5] = 10 µM, remaining activity, calculated on DMSO controls, Table 3, read-out: rPfGSK-3 Activity at 10 µM [%]
[6] = read-out: rPfGSK-3 Activity at 10 µM [%], 10 µM, remaining activity, calculated on DMSO controls, Table 3

| Compound | IC50 [1, 2] [nM] | activity at 0.3 µM [1, 3] [%] | activity at 3 µM [1, 4] [%] | viability at 48 h, 30 µM (in vitro) [%] | rHsGSK-3 Activity at 10 µM [%] (rHsGSK-3) | remaining activity at 10 µM (rPfGSK-3; [5]) [%] | SI (Selectivity index for 3D7 erythrocytic forms versus HEK293 cells) [1] | also measured |
| --- | --- | --- | --- | --- | --- | --- | --- | --- |
| N#Cc1c(N)nc2sc(C(=O)Nc3ccc(Cl)cc3)c(N)c2c1-c1ccccc1Cl [Compound 3] | 199 |  |  |  |  |  |  | IC50 ([1]; strain 3D7, erythrocytic forms): 199 nM; inhibition of plasmodial GSK-3 (in words) (rPfGSK-3): neither an inhibitor; inhibition of human GSK-3 (in words) (rHsGSK-3): neither an inhibitor |
| CNC(=O)c1sc2nc(N)c(C#N)c(-c3cccc(C)c3)c2c1N [Compound 9j, 3,6-Diamino-5-cyano-N-methyl-4-(3-methylphenyl)thieno[2,3-b]pyridine-2-carboxamide] |  | 74.6 ± 28.6 | 108 ± 24.2 | 67.2 ± 21.5 | 87.6 ± 7.4 |  |  |  |
| Cc1cccc(-c2c(C#N)c(N)nc3sc(C(=O)NC4CC4)c(N)c23)c1 [Compound 9m, 3,6-Diamino-5-cyano-N-cyclopropyl-4-(3-methylphenyl)thieno[2,3-b]pyridine-2-carboxamide] |  | 74.9 ± 15.7 | 88 ± 18.2 | 74.3 ± 31.1 | 93.8 ± 2.1 | < 40 |  |  |
| Cc1cccc(-c2c(C#N)c(N)nc3sc(C(=O)NCCN4CCOCC4)c(N)c23)c1 [Compound 9n, 3,6-Diamino-5-cyano-N-(2-morpholinoethyl)-4-(3-methylphenyl)thieno[2,3-b]pyridine-2-carboxamide] |  | 58.7 ± 25.9 | 91.6 ± 19.2 | 70.9 ± 23.6 | 93.9 ± 3.2 | < 40 |  |  |
| Nc1c(C(=O)Nc2ccc(Cl)cc2)sc2nc3c(c(-c4ccccc4)c12)CCC3 [Compound 17b, 3-Amino-N-(4-chlorophenyl)-4-phenyl-6,7-dihydro-5H-cyclopenta[b]thieno[3,2-e]pyridine-2-carboxamide] | 192 | 7.2 ± 11.3 | 7.7 ± 14.7 | 92.7 ± 11.7 |  |  | >100 | HEK293T Viability at 30 µM [%] (HEK293T cells; human, 48 h): 89.0 ± 15.8%; remaining activity at 10 µM (rPfGSK-3; [6]): 104 ± 15.5% |
| Nc1c(C(=O)Nc2ccc(F)cc2)sc2nc3c(c(-c4ccccc4)c12)CCC3 [Compound 17c, 3-Amino-N-(4-fluorophenyl)-4-phenyl-6,7-dihydro-5H-cyclopenta[b]thieno[3,2-e]pyridine-2-carboxamide] | 71.6 | 23.6 ± 16.5 | 9.9 ± 17.1 | 92.7 ± 11.7 |  |  | >100 | IC50 (3D7) [nM] ([1]; strain 3D7, erythrocytic forms): two-digit nanomolar range; HEK293T Viability at 30 µM [%] (HEK293T cells; human, 48 h): 72.4 ± 23.4%; remaining activity at 10 µM (rPfGSK-3; [6]): 103 ± 6.2% |
| Cc1cccc(-c2c3c(nc4sc(C(=O)Nc5ccc(Cl)cc5)c(N)c24)CCCC3)c1 [Compound 17e, 3-Amino-N-(4-chlorophenyl)-4-(3-methylphenyl)-5,6,7,8-tetrahydrothieno[2,3-b]quinoline-2-carbox-amide] |  |  |  |  |  |  |  | Parasitemia (3D7) at 0.3 µM [%] ([1]; 0.3 µM, strain 3D7, calculated on DMSO controls): 5.0 ± 11.6%; Parasitemia (3D7) at 3 µM [%] ([1]; 3 µM, strain 3D7, calculated on DMSO controls): 4.7 ± 13.5%; HEK293T Viability at 30 µM [%] (HEK293T cells): 57.9 ± 20.6%; rPfGSK-3 Activity at 10 µM [%] (rPfGSK-3; 10 µM, remaining activity, calculated on DMSO controls, Table 3): 103.1 ± 10.7% |
| Cc1cc(-c2ccc(N3CCN(C(=O)OC(C)(C)C)CC3)cc2Cl)c2c(N)c(C(=O)Nc3ccc(Cl)cc3)sc2n1 [Compound 17l, tert-Butyl 4-(4-{3-amino-2-[(4-chlorophenyl)carbamoyl]-6-methylthieno[2,3-b]pyridin-4-yl}-3-chloro-phenyl)piperazine-1-carboxylate] | 55.5 | 25.5 ± 14.4 | 1 ± 6.9 | 68.4 ± 24.3 |  | 103 ± 12.9 | >100 | IC50 (3D7) [nM] ([1]; strain 3D7, erythrocytic forms): two-digit nanomolar range |
